Measurements taken from paper PMC12190436, “5-Ene-2-arylaminothiazol-4(5H)-ones Induce Apoptosis in Breast Cancer Cells” (Cells, 2025).

Legend:
Assay type in all cases: cell-based
EKVX = tested on: EKVX
HOP-62 = tested on: HOP-62
HOP-92 = tested on: HOP-92
NCI-H266 = tested on: NCI-H266
[1] = tested on: Non-small Cell Lung Cancer
COLO 205 = tested on: COLO 205
SW-620 = tested on: SW-620
SNB-19 = tested on: SNB-19
U251 = tested on: U251
LOX IMVI = conditions: MG_MID_60/value
Melanoma = tested on: Melanoma
OVCAR-4 = tested on: OVCAR-4
NCI/ADR-RES = tested on: NCI/ADR-RES
SK-OV-3 = tested on: SK-OV-3
UO-31 = tested on: UO-31
Renal Cancer = tested on: Renal Cancer
Prostate Cancer = tested on: Prostate Cancer

COc1cc(NC2=NC(=O)C(=Cc3c[nH]c4ccccc34)S2)cc(OC)c1OC [Les-6418, 5-((1H-Indol-3-yl)methylene)-2-((3,4,5-trimethoxyphenyl)amino)thiazol-4(5H)-one]
TGI (EKVX; 48 h): 22.2 µM
GI50 (EKVX; Homo sapiens, 48 h): 8.02 µM
LC50 (EKVX; Homo sapiens, 48 h): 53.2 µM
SI (TGI) (EKVX; MG_MID_60/value): 0.84
TGI (HOP-62; HOP-62, 48 h): 15.7 µM
SI (TGI) (HOP-62; HOP-62, MG_MID_60/value): 1.18
GI50 (HOP-62; Homo sapiens, HOP-62, 48 h): 2.69 µM
LC50 (HOP-62; Homo sapiens, HOP-62, 48 h): 65.9 µM
Growth % (HOP-92; HOP-92, 10 μM, one dose, 48 h): −72.26%
TGI (HOP-92; HOP-92, 48 h): 6.38 µM
SI (TGI) (HOP-92; HOP-92, MG_MID_60/value): 2.92
GI50 (HOP-92; Homo sapiens, HOP-92, 48 h): 1.98 µM
CC50 (HOP-92; Homo sapiens, HOP-92, 48 h, read-out: LC50 (the source's name)): 42 µM
GI50 (NCI-H266; Homo sapiens, NCI-H266, 48 h): 3.18 µM
CC50 (NCI-H266; Homo sapiens, NCI-H266, 48 h, read-out: LC50 (the source's name)): 68.8 µM
TGI (NCI-H266; NCI-H266, 48 h): 17.4 µM
SI (TGI) (NCI-H266; NCI-H266, MG_MID_60/value): 1.07
GI50 ([1]; Homo sapiens, Non-small Cell Lung Cancer subpanel mean, read-out: MG_MID GI50): 3.66 µM
CC50 ([1]; Homo sapiens, Non-small Cell Lung Cancer subpanel mean, read-out: MG_MID LC50): 61.1 µM
MG_MID TGI ([1]; Non-small Cell Lung Cancer subpanel mean): 15.6 µM
SI (MG_MID TGI) ([1]; Non-small Cell Lung Cancer subpanel, MG_MID_60/value): 1.19
TGI (COLO 205; COLO 205, 48 h): 16.4 µM
SI (TGI) (COLO 205; COLO 205, MG_MID_60/value): 1.13
GI50 (COLO 205; Homo sapiens, COLO 205, 48 h): 3.14 µM
CC50 (COLO 205; Homo sapiens, COLO 205, 48 h, read-out: LC50 (the source's name)): 49.6 µM
GI50 (SW-620; Homo sapiens, SW-620, 48 h): 3.1 µM
CC50 (SW-620; Homo sapiens, SW-620, 48 h, read-out: LC50 (the source's name)): 85 µM
TGI (SW-620; SW-620, 48 h): 21.8 µM
SI (TGI) (SW-620; SW-620, MG_MID_60/value): 0.85
GI50 (SNB-19; Homo sapiens, SNB-19, 48 h): 6.6 µM
CC50 (SNB-19; Homo sapiens, SNB-19, 48 h, read-out: LC50 (the source's name)): 52.2 µM
TGI (SNB-19; SNB-19, 48 h): 21.2 µM
SI (TGI) (SNB-19; SNB-19, MG_MID_60/value): 0.88
GI50 (U251; Homo sapiens, U-251, U251, 48 h): 3.27 µM
CC50 (U251; Homo sapiens, U-251, U251, 48 h, read-out: LC50 (the source's name)): 54.7 µM
TGI (U251; U251, 48 h): 15.7 µM
SI (TGI) (U251; U251, MG_MID_60/value): 1.18
Growth % (U251; U-251, 10 μM, one dose, 48 h): −79.79%
SI (TGI) (LOX IMVI): 1.34
GI50 (Melanoma; Homo sapiens, Melanoma subpanel mean, read-out: MG_MID GI50): 3 µM
CC50 (Melanoma; Homo sapiens, Melanoma subpanel mean, read-out: MG_MID LC50): 43.1 µM
MG_MID TGI (Melanoma; Melanoma subpanel mean): 14.9 µM
SI (MG_MID TGI) (Melanoma; Melanoma subpanel, MG_MID_60/value): 1.25
GI50 (OVCAR-4; Homo sapiens, OVCAR-4, 48 h): 2.88 µM
CC50 (OVCAR-4; Homo sapiens, OVCAR-4, 48 h, read-out: LC50 (the source's name)): 35.3 µM
TGI (OVCAR-4; OVCAR-4, 48 h): 10.6 µM
SI (TGI) (OVCAR-4; OVCAR-4, MG_MID_60/value): 1.75
TGI (NCI/ADR-RES; 48 h): 24.2 µM
GI50 (NCI/ADR-RES; Homo sapiens, 48 h): 6.24 µM
CC50 (NCI/ADR-RES; Homo sapiens, 48 h, read-out: LC50 (the source's name)): 74.2 µM
SI (TGI) (NCI/ADR-RES; MG_MID_60/value): 0.77
GI50 (SK-OV-3; Homo sapiens, SK-OV-3, 48 h): 2.56 µM
CC50 (SK-OV-3; Homo sapiens, SK-OV-3, 48 h, read-out: LC50 (the source's name)): 38.5 µM
TGI (SK-OV-3; SK-OV-3, 48 h): 10.3 µM
SI (TGI) (SK-OV-3; SK-OV-3, MG_MID_60/value): 1.81
GI50 (UO-31; Homo sapiens, UO-31, 48 h): 3.43 µM
CC50 (UO-31; Homo sapiens, UO-31, 48 h, read-out: LC50 (the source's name)): 38.8 µM
TGI (UO-31; UO-31, 48 h): 13.7 µM
SI (TGI) (UO-31; UO-31, MG_MID_60/value): 1.36
GI50 (Renal Cancer; Homo sapiens, Renal Cancer subpanel mean, read-out: MG_MID GI50): 4.22 µM
CC50 (Renal Cancer; Homo sapiens, Renal Cancer subpanel mean, read-out: MG_MID LC50): 44.6 µM
MG_MID TGI (Renal Cancer; Renal Cancer subpanel mean): 14.5 µM
SI (MG_MID TGI) (Renal Cancer; Renal Cancer subpanel, MG_MID_60/value): 1.28
GI50 (Prostate Cancer; Homo sapiens, Prostate Cancer subpanel mean, read-out: MG_MID GI50): 3.61 µM
CC50 (Prostate Cancer; Homo sapiens, Prostate Cancer subpanel mean, read-out: MG_MID LC50): 70.8 µM
MG_MID TGI (Prostate Cancer; Prostate Cancer subpanel mean): 19.9 µM
SI (MG_MID TGI) (Prostate Cancer; Prostate Cancer subpanel, MG_MID_60/value): 0.93
